Here are results for 52 molecules from patent publication US9566290B2, “Boron-containing small molecules” (Anacor Pharmaceuticals, Inc., priority 2005, dated 2017).

As a reminder, the melting point is the temperature of the solid-liquid transition. With `COc1ccc2c(c1)COB2O` [C7, 5-methoxybenzo[c][1,2]oxaborol-1(3H)-ol], the melting point lay within 102 to 104 °C.

The molecule `Cc1ccc2c(c1)COB2O` [C8, 5-methylbenzo[c][1,2]oxaborol-1(3H)-ol] showed a melting point of 124 to 128 °C.

Molecule `OB1OCc2ccc3ccccc3c21` [C11, naphtho[1,2-c][1,2]oxaborol-1(3H)-ol] had a melting point of 139 to 143 °C.

Molecule `OB1OCc2ccc(F)cc21` [C13, 6-fluorobenzo[c][1,2]oxaborol-1(3H)-ol] yielded a melting point of 110 to 117.5 °C.

Turning to `N#Cc1cccc(Oc2ccc3c(c2)B(O)OC3)c1` [C19, 3-(1-hydroxy-1,3-dihydrobenzo[c][1,2]oxaborol-6-yloxy)benzonitrile], the melting point is 146 to 149 °C.

`OB1OCc2ccc(Oc3ccc(Cl)cc3)cc21` [C20, 6-(4-chlorophenoxy)benzo[c][1,2]oxaborol-1(3H)-ol] registered a melting point of 119 to 130 °C.

`OB1OCc2ccc(Oc3ccccc3)cc21` [C21, 6-phenoxybenzo[c][1,2]oxaborol-1(3H)-ol] had a melting point of 95 to 99 °C.

The molecule `OB1OCc2ccc(Sc3ccccc3)cc21` [C28, 6-(phenylthio)benzo[c][1,2]oxaborol-1(3H)-ol] showed a melting point of 121 to 124 °C.

As for `OB1OCc2ccc(Oc3ccc(OC(F)(F)F)cc3)cc21` [C29, 6-(4-(trifluoromethoxy)phenoxy)benzo[c][1,2]oxaborol-1(3H)-ol], the melting point fell in the range of 97 to 101 °C.

In turn, `CN(c1ccc2c(c1)COB2O)S(=O)(=O)c1ccccc1` [C30, N-(1-hydroxy-1,3-dihydrobenzo[c][1,2]oxaborol-5-yl)-N-methylbenzenesulfonamide] yielded a melting point of 85 to 95 °C.

`COc1ccc(Oc2ccc3c(c2)B(O)OC3)cc1` [C31, 6-(4-methoxyphenoxy)benzo[c][1,2]oxaborol-1(3H)-ol] registered a melting point of 126 to 129 °C.

Molecule `COc1ccc(Sc2ccc3c(c2)B(O)OC3)cc1` [C32, 6-(4-methoxyphenylthio)benzo[c][1,2]oxaborol-1(3H)-ol] gave a melting point of 95 to 100 °C.

Consider `COc1ccc(S(=O)(=O)c2ccc3c(c2)B(O)OC3)cc1` [C33, 6-(4-methoxyphenylsulfonyl)benzo[c][1,2]oxaborol-1(3H)-ol], for which the melting point fell in the range of 180 to 192 °C.

With `CCOC(=O)COc1ccc2c(c1)COB2O` [C41, Ethyl 2-(1-hydroxy-1,3-dihydrobenzo[c][1,2]oxaborol-5-yloxy)acetate], the melting point lay in the range of 134 to 137 °C.

`O=C(O)COc1ccc2c(c1)COB2O` [C42, 2-(1-hydroxy-1,3-dihydrobenzo[c][1,2]oxaborol-5-yloxy)acetic acid] returned a melting point of 163 to 166 °C.

Regarding `OB1OCc2ccc(Sc3cccs3)cc21` [C43, 6-(thiophen-2-ylthio)benzo[c][1,2]oxaborol-1(3H)-ol], the melting point was 99 to 104 °C.

On to `OB1OCc2ccc(Sc3ccc(F)cc3)cc21` [C44, 6-(4-fluorophenylthio)benzo[c][1,2]oxaborol-1(3H)-ol], for which the melting point fell in the range of 135 to 138 °C.

As to `CCCCC(=O)c1cccc(COc2ccc3c(c2)COB3O)c1` [C45, 1-(3-((1-hydroxy-1,3-dihydrobenzo[c][1,2]oxaborol-5-yloxy)methyl)phenyl)pentan-1-one], the melting point lay within 96 to 98 °C.

Turning to `O=C(COc1ccc2c(c1)COB2O)N1CCCCC1` [C46, 2-(1-hydroxy-1,3-dihydrobenzo[c][1,2]oxaborol-5-yloxy)-1-(piperidin-1-yl)ethanone], the melting point fell in the range of 158 to 163 °C.

`O=C(COc1ccc2c(c1)COB2O)N1CCN(c2ncccn2)CC1` [C47, 2-(1-hydroxy-1,3-dihydrobenzo[c][1,2]oxaborol-5-yloxy)-1-(4-(pyrimidin-2-yl)piperazin-1-yl)ethanone] gave a melting point of 190 to 195 °C.

Regarding `OB1OCc2ccc(N3CCN(c4ccccn4)CC3)cc21` [C48, 6-(4-(pyridin-2-yl)piperazin-1-yl)benzo[c][1,2]oxaborol-1(3H)-ol], the melting point lay in the range of 135 to 138 °C.

`CN(C)c1ccc2c(c1)B(O)OC2` [C51, 6-(dimethylamino)benzo[c][1,2]oxaborol-(3H)-ol] showed a melting point of 120 to 123 °C.

In turn, `O=C(Nc1ccc2c(c1)B(O)OC2)c1ccccc1` [C52, N-(1-hydroxy-1,3-dihydrobenzo[c][1,2]oxaborol-6-yl)benzamide] showed a melting point of 186 to 193 °C.

`OB1OCc2ccc(N3CCN(c4ccccc4)CC3)cc21` [C53, 6-(4-phenylpiperazin-1-yl)benzo[c][1,2]oxaborol-1(3H)-ol]: the melting point is 159 to 161 °C.

In the case of `OB1OCc2ccc(-n3ccc4ccccc43)cc21` [C55, 6-(1H-indol-1-yl)benzo[c][1,2]oxaborol-1(3H)-ol], the melting point lay within 135 to 140 °C.

For `OB1OCc2ccc(N3CCOCC3)cc21` [C56, 6-morpholinobenzo[c][1,2]oxaborol-1(3H)-ol], the melting point fell in the range of 128 to 132 °C.

In turn, `O=[N+]([O-])c1cc2c(cc1F)COB2O` [C58, 5-fluoro-6-nitrobenzo[c][1,2]oxaborol-1(3H)-ol] registered a melting point of 162 to 167 °C.

Consider `OCc1cc2c(cc1Br)COB2O` [C59, 5-bromo-6-(hydroxymethyl)benzo[c][1,2]oxaborol-1(3H)-ol], for which the melting point was over 257 °C.

Take `OB1OCc2cc3c(cc21)COB3O` [C60, 3,7-dihydro-1,5-dihydroxy-1H,3H-Benzo[2-c: 4,5-c′]bis[1,2]oxaborole]: the melting point is over 250 °C.

For `O=S(=O)(Nc1ccc2c(c1)B(O)OC2)c1ccccc1` [C62, N-(1-hydroxy-1,3-dihydrobenzo[c][1,2]oxaborol-6-yl)benzenesulfonamide], the melting point lay within 175 to 184 °C.

The molecule `CC(=O)Nc1ccc2c(c1)B(O)OC2` [C63, N-(1-hydroxy-1,3-dihydrobenzo[c][1,2]oxaborol-6-yl)acetamide] showed a melting point of 176 to 185 °C.

In turn, `OCc1cccc2c1B(O)OC2` [C64, 7-(hydroxymethyl)benzo[c][1,2]oxaborol-1(3H)-ol] showed a melting point of 241 to 250 °C.

`Cc1cccc2c1B(O)OC2` [C65, 7-methylbenzo[c][1,2]oxaborol-1(3H)-ol] registered a melting point of 107 to 111 °C.

With `OB1OCc2ccc(-n3cc(Sc4ccccc4)c4ccccc43)cc21` [C66, 6-(3-(phenylthio)-1H-indol-1-yl)benzo[c][1,2]oxaborol-1(3H)-ol], the melting point lay in the range of 159 to 163 °C.

On to `N#CCCSc1cn(-c2ccc3c(c2)B(O)OC3)c2ccccc12` [C67, 3-(1-(1-hydroxy-1,3-dihydrobenzo[c][1,2]oxaborol-6-yl)-1H-indol-3-ylthio)propanenitrile], for which the melting point is 135 to 141 °C.

`COc1ccc2c(ccn2-c2ccc3c(c2)B(O)OC3)c1` [C68, 6-(5-methoxy-1H-indol-1-yl)benzo[c][1,2]oxaborol-1(3H)-ol] had a melting point of 120 to 124 °C.

As for `OB1OCc2cc3c(cc21)OCO3` [C69, 5,6-methylenedioxybenzo[c][1,2]oxaborol-1(3H)-ol], the melting point was 185 to 189 °C.

`Nc1cc2c(cc1F)COB2O` [C70, 6-amino-5-fluorobenzo[c][1,2]oxaborol-1(3H)-ol] gave a melting point of 142 to 145 °C.

As for `OB1OCc2cc(F)c(NCc3ccccc3)cc21` [C71, 6-(benzylamino)-5-fluorobenzo[c][1,2]oxaborol-1(3H)-ol], the melting point was 159 to 164 °C.

For the molecule `COc1ccc2c(c1)c(Sc1ccccc1)cn2-c1ccc2c(c1)B(O)OC2` [C72, 6-(5-methoxy-3-(phenylthio)-1H-indol-1-yl)benzo[c][1,2]oxaborol-1(3H)-ol], the melting point lay within 135 to 141 °C.

In turn, `COc1ccc2c(c1)c(SCCC#N)cn2-c1ccc2c(c1)B(O)OC2` [C73, 3-(1-(1-hydroxy-1,3-dihydrobenzo[c][1,2]oxaborol-6-yl)-5-methoxy-1H-indol-3-ylthio)propanenitrile] yielded a melting point of 149 to 154 °C.

With `N#Cc1ccc(Oc2cccc3c2B(O)OC3)cc1` [C74, 4-(1-hydroxy-1,3-dihydrobenzo[c][1,2]oxaborol-7-yloxy)benzonitrile], the melting point fell in the range of 148 to 153 °C.

`OB1OCc2ccc(-n3ccc4cc(Cl)ccc43)cc21` [C75, 6-(5-chloro-1H-indol-1-yl)benzo[c][1,2]oxaborol-1(3H)-ol] came in with a melting point of 149 to 154 °C.

Take `N#CCCSc1cn(-c2ccc3c(c2)B(O)OC3)c2ccc(Cl)cc12` [C76, 3-(5-chloro-1-(1-hydroxy-1,3-dihydrobenzo[c][1,2]oxaborol-6-yl)-1H-indol-3-ylthio)propanenitrile]: the melting point is over 225 °C.

Molecule `OB1OCc2ccc(NCc3ccccc3)cc21` [C77, 6-(benzylamino)benzo[c][1,2]oxaborol-1(3H)-ol] registered a melting point of 126 to 133 °C.

Take `OB1OCc2ccc(N(Cc3ccccc3)Cc3ccccc3)cc21` [C78, 6-(dibenzylamino)benzo[c][1,2]oxaborol-1(3H)-ol]: the melting point lay in the range of 115 to 123 °C.

Take `OB1OCc2ccc(-n3cc(Sc4ccccc4)c4cc(Cl)ccc43)cc21` [C80, 6-(5-chloro-3-(phenylthio)-1H-indol-1-yl)benzo[c][1,2]oxaborol-1(3H)-ol]: the melting point lay in the range of 145 to 151 °C.

`OB1OCc2cccc(F)c21` [C86, 7-fluorobenzo[c][1,2]oxaborol-1(3H)-ol]: the melting point lay within 120 to 124 °C.

`OB1OCc2ccc(Oc3ccc(C(F)(F)F)cc3)cc21` [C87, 6-(4-(trifluoromethyl)phenoxy)benzo[c][1,2]oxaborol-1(3H)-ol] returned a melting point of 98 to 105 °C.

For `OB1OCc2ccc(Sc3ccc(Cl)cc3)cc21` [C88, 6-(4-chlorophenylthio)benzo[c][1,2]oxaborol-1(3H)-ol], the melting point lay in the range of 157 to 161 °C.

Take `[O-][S+](c1ccc(Cl)cc1)c1ccc2c(c1)B(O)OC2` (stereo not shown) [C89, 6-(4-chlorophenylsulfinyl)benzo[c][1,2]oxaborol-1(3H)-ol]: the melting point was 154 to 161 °C.

The molecule `O=S(=O)(c1ccc(Cl)cc1)c1ccc2c(c1)B(O)OC2` [C90, 6-(4-chlorophenylsulfonyl)benzo[c][1,2]oxaborol-1(3H)-ol] registered a melting point of 157 to 163 °C.
